Test results published in the supplement of paper PMC10307832.

Legend:
Experiment in all cases: relative viability (nuclei count vs DMSO), 5 days (fraction); higher = more cells survive
Ibrutinib + Crizotinib = compound: C=CC(=O)N1CCC[C@@H](n2nc(-c3ccc(Oc4ccccc4)cc3)c3c(N)ncnc32)C1 [Ibrutinib] + C[C@@H](Oc1cc(-c2cnn(C3CCNCC3)c2)cnc1N)c1c(Cl)ccc(F)c1Cl [Crizotinib] (partner 1 µM)
Method in brief: (§1)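 Values are medians from duplicate plates. Each reflects relative viability, defined as the nuclei count of treated wells over that of vehicle wells. Lung cancer cell lines in 1536-well plates were pin-tool dosed one day after seeding with one drug alone or with a fixed anchor-drug dose plus five library-drug doses (not always all listed) in √10 steps, then fixed, stained and imaged at 4× after 5 days.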

Ibrutinib + Vorinostat = compound: C=CC(=O)N1CCC[C@@H](n2nc(-c3ccc(Oc4ccccc4)cc3)c3c(N)ncnc32)C1 [Ibrutinib] + O=C(CCCCCCC(=O)Nc1ccccc1)NO [Vorinostat] (partner 1 µM)
Method in brief: as §1

BMX-IN-1 + Linsitinib = compound: C=CC(=O)Nc1cc(-n2c(=O)ccc3cnc4ccc(-c5ccc(NS(C)(=O)=O)cc5)cc4c32)ccc1C [BMX-IN-1] + C[C@]1(O)C[C@@H](c2nc(-c3ccc4ccc(-c5ccccc5)nc4c3)c3c(N)nccn32)C1 [Linsitinib] (partner 1 µM)
Method in brief: as §1

PAC-1 + Olaparib = compound: C=CCc1cccc(/C=N/NC(=O)CN2CCN(Cc3ccccc3)CC2)c1O [PAC-1] + O=C(c1cc(Cc2n[nH]c(=O)c3ccccc23)ccc1F)N1CCN(C(=O)C2CC2)CC1 [Olaparib] (partner 8 µM)
Method in brief: as §1

## UMC-11
Ibrutinib + Crizotinib; first compound 0.005 µM
  relative viability: 0.538
Ibrutinib + Crizotinib; first compound 0.01581 µM
  relative viability: 0.598
Ibrutinib + Crizotinib; first compound 0.05 µM
  relative viability: 0.596
Ibrutinib + Crizotinib; first compound 0.1581 µM
  relative viability: 0.681
Ibrutinib + Crizotinib; first compound 0.5 µM
  relative viability: 0.57
Ibrutinib + Vorinostat; first compound 0.005 µM
  relative viability: 0.39
Ibrutinib + Vorinostat; first compound 0.01581 µM
  relative viability: 0.376
Ibrutinib + Vorinostat; first compound 0.05 µM
  relative viability: 0.454
Ibrutinib + Vorinostat; first compound 0.1581 µM
  relative viability: 0.345
BMX-IN-1 + Linsitinib; first compound 0.02 µM
  relative viability: 1.1
BMX-IN-1 + Linsitinib; first compound 0.2 µM
  relative viability: 1.23
BMX-IN-1 + Linsitinib; first compound 0.6325 µM
  relative viability: 1.13
BMX-IN-1 + Linsitinib; first compound 2 µM
  relative viability: 0.998
PAC-1 + Olaparib; first compound 0.02 µM
  relative viability: 0.411
PAC-1 + Olaparib; first compound 0.06325 µM
  relative viability: 0.366
PAC-1 + Olaparib; first compound 0.2 µM
  relative viability: 0.366
PAC-1 + Olaparib; first compound 2 µM
  relative viability: 0.377
